Measurements published in PubChem BioAssay (NCI).
Several values for one entry are separate records, joined by “and”; a condition that tells them apart may be missing. Identical values can stand only once.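 48-hour exposure; five concentrations; linearly interpolated endpoints. The concentration for 50% growth inhibition is given as GI50. At the TGI there is no net growth.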 Where a SMILES comes first, the peptide text is derived from it. The star is where a group is joined. Cbz = O=C(OCc1ccccc1)*; Boc = CC(C)(C)OC(=O)*; OSu = O=C1CCC(=O)N1O*; Bn = c1ccc(C*)cc1

How the values were obtained:
Test in all cases: NCI-60 cell line screen, 48 h
HOP-62 NSCLC = tested on: HOP-62 NSCLC
COLO 205 colon = tested on: COLO 205 colon
MCF7 breast = tested on: MCF7 breast
SW-620 colon = tested on: SW-620 colon
SF-295 CNS = tested on: SF-295 CNS
HT29 colon = tested on: HT29 colon
786-0 renal = tested on: 786-0 renal
U251 CNS = tested on: U251 CNS
SK-MEL-5 melanoma = tested on: SK-MEL-5 melanoma
SK-OV-3 ovarian = tested on: SK-OV-3 ovarian
OVCAR-3 ovarian = tested on: OVCAR-3 ovarian
UO-31 renal = tested on: UO-31 renal

Structure (SMILES)	TGI (HOP-62 NSCLC)	TGI (COLO 205 colon)	TGI (MCF7 breast)	TGI (SW-620 colon)	TGI (SF-295 CNS)	TGI (HT29 colon)	TGI (786-0 renal)	TGI (U251 CNS)	TGI (SK-MEL-5 melanoma)	TGI (SK-OV-3 ovarian)	TGI (OVCAR-3 ovarian)	TGI (UO-31 renal)	GI50 (COLO 205 colon)	GI50 (MCF7 breast)	GI50 (SF-295 CNS)	GI50 (UO-31 renal)	GI50 (HT29 colon)	GI50 (SK-OV-3 ovarian)	GI50 (OVCAR-3 ovarian)
CSc1nc(C)c2c(n1)N(c1ccc(Cl)cc1)CC2	> 100 µM	> 100 µM	> 100 µM	> 100 µM	> 100 µM	> 100 µM	> 100 µM	> 100 µM	> 100 µM	> 100 µM	> 100 µM								
CC(C)[C@@H]1NC(=O)[C@@H]2N=C(O[C@H]2C)[C@H](C(C)C)NC(=O)C2N=C1O[C@H]2C	> 100 µM	> 100 µM	> 100 µM	> 100 µM	> 100 µM	> 100 µM	> 100 µM		> 100 µM		> 100 µM	> 100 µM							
CC1=CCN(c2ccccn2)OC1c1ccccc1 (stereo not given)	> 100 µM	> 100 µM		> 100 µM	> 100 µM	> 100 µM	> 100 µM	> 100 µM		> 100 µM	> 100 µM	> 100 µM							
CC[C@@]1(O)C(=O)OCc2c1cc1n(c2=O)Cc2c-1nc1ccccc1c2C=Nc1ccccc1N[C@@H]1c2cc3c(cc2[C@@H](c2cc(OC)c(O)c(OC)c2)[C@H]2C(=O)OC[C@@H]21)OCO3	0.466 µM and 0.154 µM	24.8 µM and > 10.6 µM		> 100 µM	> 50 µM	> 50 µM	0.339 µM	34.6 µM		15.2 µM	10.9 µM and 1.81 µM	3.12 µM and 0.593 µM	8.86 µM and 0.929 µM	< 0.005 µM	0.149 µM and 0.134 µM	0.129 µM and 0.0745 µM	0.327 µM and 0.125 µM	1.23 µM and 0.213 µM	1.46 µM and 0.337 µM
CCCCCCCCCCCCC1N=C(N)N2CCCC2=C1C(=O)OC (stereo not given)	9.95 µM	4.17 µM		3.05 µM	3.39 µM	3.06 µM	3.04 µM	3.06 µM	4.88 µM	23.8 µM	5.11 µM	24.4 µM							
O=C1CNN=C(Cn2nc(-c3ccccc3)c3ccccc3c2=O)N1	> 100 µM	> 100 µM		> 100 µM	> 100 µM	> 100 µM	> 100 µM	> 100 µM	> 100 µM	> 100 µM	> 100 µM	> 100 µM							
C/C(Nc1ccc(Cl)cc1)=C1/CCOC1=O	> 100 µM		> 100 µM	> 100 µM	> 100 µM	> 100 µM	> 100 µM	> 100 µM		> 100 µM	> 100 µM	> 100 µM							
CC(=O)NN(c1ccccc1)C1CCN(c2ccccc2)N1C(C)=O (stereo not given)	> 10 µM	> 10 µM	> 10 µM	> 10 µM	> 10 µM	> 10 µM	> 10 µM		> 10 µM	> 10 µM	> 10 µM	> 10 µM							
COc1ccc(-c2cc(-c3ccco3)c(C#N)c(=O)[nH]2)cc1	72.1 µM	> 100 µM		> 100 µM	> 100 µM	> 100 µM	> 100 µM	40.1 µM		72.2 µM	53.8 µM	> 100 µM							
N#Cc1c(N)nc(Sc2ccccc2N)c(C#N)c1-c1ccccc1	> 100 µM	> 100 µM	49.8 µM	> 100 µM		> 100 µM	63.3 µM	60.2 µM	> 100 µM			34.3 µM							
O=S(=O)(O)c1cc(O)c(N=Nc2ccc3ccccc3c2O)c2ccccc12	> 100 µM	> 100 µM		> 100 µM	> 100 µM	72.3 µM	> 100 µM	> 100 µM	25.2 µM	> 100 µM	> 100 µM	65 µM							
O=C(/C(=C/c1ccc(O)cc1)c1ccccc1)c1ccccc1	33.9 µM	32.8 µM		32 µM	33.4 µM	32.1 µM	34.5 µM	29.7 µM	28.3 µM	40.2 µM		29.4 µM							
COc1ccc(C23OCC(Cc4cc(OC)c(OC)cc42)C3CO)cc1OC (stereo not given)	> 100 µM	> 100 µM	> 100 µM	> 100 µM	> 100 µM		> 100 µM	> 100 µM	> 100 µM	> 100 µM	> 100 µM	> 100 µM							
CCCCCCCCCCCCCCCC(=O)OCC1OC(n2cc(F)c(=O)[nH]c2=O)C(NC(=O)N(CCCl)N=O)C(O)C1O (stereo not given)	2.34 µM	9.51 µM		6.58 µM	6.03 µM	14.1 µM	3.59 µM	3.74 µM	9.8 µM	14.3 µM	20.9 µM	29.6 µM							
Cn1c(NC(=O)NC23CC4CC(CC(C4)C2)C3)nc2ccccc21	> 100 µM	> 100 µM		> 100 µM	52.3 µM	> 100 µM	81.5 µM	> 100 µM	> 100 µM	51.8 µM	> 100 µM	> 100 µM							
C=CCOC(=O)N1c2ccc(O)cc2[C@@]23O[C@@]24[C@@H]1C#C/C=C\C#C[C@]3(O)C(=O)C[C@@H]4C	> 100 µM	> 100 µM	> 100 µM	> 100 µM	> 100 µM	> 100 µM	> 100 µM	> 100 µM	> 100 µM			> 100 µM							
COc1cc2c(cc1OC)C(=O)N(c1ccc(OCCN3CCCC3)cc1)C2=O	> 100 µM	> 100 µM	> 100 µM	> 100 µM	> 100 µM	> 100 µM	> 100 µM	> 100 µM	> 100 µM	> 100 µM	> 100 µM								
CCC(=C/[C@H](C)C/C=C/C(C)=C/[C@@H](C)C(=O)[C@@H](C)[C@H](O)[C@@H](C)CC)/C=C/[C@H]1CC=CC(=O)O1	2.05 µM and 13 µM	0.0428 µM	0.0033 µM	2.09 µM and 12.1 µM	1.48 µM and 13.8 µM	2.48 µM and 10.7 µM	1.26 µM and 10.8 µM	1.4 µM and 11.6 µM	0.0182 µM	3.28 µM and 18.6 µM									
CC(C)(C)OC(=O)NC(Cc1ccc(OCc2ccccc2)cc1)C(=O)NC(CCCCNC(=O)OCc1ccccc1)C(=O)NC(CCCCNC(=O)OCc1ccccc1)C(=O)ON1C(=O)CCC1=O (stereo not given) (Boc-Tyr(Bn)-Lys(Cbz)-Lys(Cbz)-OSu; configuration not given here)	> 100 µM	> 100 µM	39.3 µM		72.1 µM	> 100 µM	37.1 µM	31.8 µM	> 100 µM	> 100 µM		> 100 µM							
